In experiment [1] the target is T1, Tyrosine-protein phosphatase non-receptor type 22 (Homo sapiens, UniProt Q9Y2R2).
T1 sequence (Q9Y2R2 whole entry): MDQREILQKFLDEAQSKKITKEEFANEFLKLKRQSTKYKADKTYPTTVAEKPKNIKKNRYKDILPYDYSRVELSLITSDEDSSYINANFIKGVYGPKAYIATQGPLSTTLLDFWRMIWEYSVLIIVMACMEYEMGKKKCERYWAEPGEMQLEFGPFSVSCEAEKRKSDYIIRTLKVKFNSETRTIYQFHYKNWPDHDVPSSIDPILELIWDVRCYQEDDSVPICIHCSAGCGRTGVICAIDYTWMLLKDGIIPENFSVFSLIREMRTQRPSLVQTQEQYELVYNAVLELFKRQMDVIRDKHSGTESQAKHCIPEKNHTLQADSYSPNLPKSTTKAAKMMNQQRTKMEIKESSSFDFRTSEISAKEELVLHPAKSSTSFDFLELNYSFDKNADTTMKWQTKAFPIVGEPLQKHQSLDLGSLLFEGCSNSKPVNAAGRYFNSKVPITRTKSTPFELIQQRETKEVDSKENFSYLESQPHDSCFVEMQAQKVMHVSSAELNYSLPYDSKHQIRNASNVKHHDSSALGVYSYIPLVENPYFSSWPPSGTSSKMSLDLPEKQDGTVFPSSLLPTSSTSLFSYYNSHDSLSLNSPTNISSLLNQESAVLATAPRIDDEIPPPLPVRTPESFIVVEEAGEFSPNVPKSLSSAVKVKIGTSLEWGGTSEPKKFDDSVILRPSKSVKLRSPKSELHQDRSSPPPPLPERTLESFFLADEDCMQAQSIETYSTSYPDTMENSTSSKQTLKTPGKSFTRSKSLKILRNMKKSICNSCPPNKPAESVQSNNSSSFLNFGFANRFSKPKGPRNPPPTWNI
Briefly: Inhibition of LYP (unknown origin) expressed in Escherichia coli using pNPP substrate after 5 mins by spectrophotometric analysis.

The target in experiment [2] is T2, Tyrosine-protein phosphatase non-receptor type 2 (Homo sapiens, UniProt P17706).
T2 sequence (P17706 whole entry): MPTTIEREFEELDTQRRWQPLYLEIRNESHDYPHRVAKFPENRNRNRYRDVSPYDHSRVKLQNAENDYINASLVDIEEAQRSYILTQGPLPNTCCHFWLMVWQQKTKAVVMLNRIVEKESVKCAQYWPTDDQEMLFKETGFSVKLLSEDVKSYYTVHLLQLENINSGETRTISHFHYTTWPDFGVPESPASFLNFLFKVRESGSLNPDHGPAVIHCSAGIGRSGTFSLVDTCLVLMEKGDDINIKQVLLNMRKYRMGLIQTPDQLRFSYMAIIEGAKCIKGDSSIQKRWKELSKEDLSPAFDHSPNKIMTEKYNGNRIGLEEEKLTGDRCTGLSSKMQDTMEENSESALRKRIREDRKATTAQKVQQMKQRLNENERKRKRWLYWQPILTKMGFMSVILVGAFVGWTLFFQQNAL
Briefly: Inhibition of TCPTP (unknown origin) expressed in Escherichia coli using pNPP substrate after 5 mins by spectrophotometric analysis.

Experiment [3] concerns the target T3, Tyrosine-protein phosphatase non-receptor type 1 (Homo sapiens, UniProt P18031).
T3 sequence (P18031 whole entry): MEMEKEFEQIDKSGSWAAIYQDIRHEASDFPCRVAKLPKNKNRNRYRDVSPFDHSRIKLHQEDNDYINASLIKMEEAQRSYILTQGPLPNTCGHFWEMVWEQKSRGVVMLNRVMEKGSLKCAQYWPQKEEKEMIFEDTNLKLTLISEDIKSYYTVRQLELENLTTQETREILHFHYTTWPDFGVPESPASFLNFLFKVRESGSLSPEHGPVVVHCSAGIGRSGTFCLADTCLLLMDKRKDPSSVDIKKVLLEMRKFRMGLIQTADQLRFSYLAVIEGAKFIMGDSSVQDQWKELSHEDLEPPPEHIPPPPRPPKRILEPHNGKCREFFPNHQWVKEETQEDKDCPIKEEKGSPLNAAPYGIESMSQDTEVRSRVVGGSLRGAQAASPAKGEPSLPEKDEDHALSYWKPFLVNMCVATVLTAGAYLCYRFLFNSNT
Description: Inhibition of PTP1B (unknown origin) expressed in Escherichia coli using pNPP substrate after 5 mins by spectrophotometric analysis.

Experiment [4] concerns the target Dual specificity protein phosphatase 3 (Homo sapiens, UniProt P51452). Briefly: Inhibition of VHR (unknown origin) expressed in Escherichia coli using pNPP substrate after 5 mins by spectrophotometric analysis.

A value given as a limit tells only on which side of the number the result lay.

We go through 8 molecules from ChEMBL document CHEMBL2311454, “Discovery and evaluation of novel inhibitors of mycobacterium protein tyrosine phosphatase B from the 6-Hydroxy-benzofuran-5-carboxylic acid scaffold” (J Med Chem, 2013).

Dual specificity protein phosphatase 3, sequence (P51452 whole entry): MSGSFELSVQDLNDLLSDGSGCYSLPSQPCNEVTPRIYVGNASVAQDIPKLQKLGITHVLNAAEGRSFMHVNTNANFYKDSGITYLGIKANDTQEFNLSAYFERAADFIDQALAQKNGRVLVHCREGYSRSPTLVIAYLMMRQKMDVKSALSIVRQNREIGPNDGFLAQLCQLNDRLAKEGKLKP

Usually IC50 stands for the concentration that inhibits the measured activity by half. `O=C(O)c1cc2c(C#CCO)c(-c3ccccc3)oc2cc1O`: the IC50 in experiment [1], in experiment [2], in experiment [3] and in experiment [4] was more than 100 µM each time.
As to `O=C(O)c1cc2c(CCc3cccc(C(F)(F)F)c3)c(-c3ccccc3)oc2cc1O`, the half-maximal inhibitory concentration (IC50) in experiment [1] stood at 3.5 µM; in experiment [2] it was 10 µM; in experiment [3] it was 7.4 µM; in experiment [4], 6.2 µM.
In the same order, the values of `O=C(O)c1cc2c(CCc3ccc(OC(F)(F)F)cc3)c(-c3ccccc3)oc2cc1O` are 4.1 µM, 8.9 µM, 8.4 µM and 6.7 µM.
The corresponding values for `C[C@]12CCC(=O)C=C1CC[C@@H]1[C@@H]2CC[C@@]2(C)[C@H]1CC[C@]2(O)C#Cc1c(-c2ccccc2)oc2cc(O)c(C(=O)O)cc12` are 12.2 µM, more than 50 µM, more than 50 µM and more than 100 µM.
The corresponding values for `O=C(O)c1cc2c(/C=C\c3cc(F)cc(F)c3)c(-c3ccccc3)oc2cc1O` are 3.7 µM, 9.5 µM, 8 µM and 8.6 µM.
In the case of `O=C(O)c1cc2c(CCc3ccc(Oc4ccccc4)cc3)c(-c3ccccc3)oc2cc1O`, the IC50 in experiment [1] was 2.2 µM; in experiment [2] it was 11.8 µM; in experiment [3], 8 µM; in experiment [4], 6.3 µM.
In the same order, the values of `C#Cc1c(-c2ccccc2)oc2cc(O)c(C(=O)O)cc12` are 50 µM, more than 50 µM, more than 50 µM and more than 50 µM.
Regarding `O=C(O)c1cc2c(CCc3cccc(F)c3)c(-c3ccccc3)oc2cc1O`, the half-inhibitory concentration (IC50) in experiment [1] is 12.4 µM; in experiment [2], 33 µM; in experiment [3], 60 µM; in experiment [4], 22 µM.
